Measured values from paper PMC7763444, “Bioactive Steroids from the Red Sea Soft Coral Sinularia polydactyla” (Marine Drugs, 2020).

How the values were obtained:
[1] = Stability of the isolated metabolite during structure elucidation; assay type: physicochemical; settings: degraded prior to the acquisition of heteronuclear NMR spectra
Source text: Compound 2 shared quite similar spectroscopic features with 1. In particular, all signals attributed to the steroidal nucleus, with the most prominent being the signals of the two angular methyls H3-18 and H3-19 (δH 1.09 and 0.94, respectively), the methyl at C-4 (δH 1.04), the oxymethine H-3 (δH 3.10), and the two olefinic protons H-9 and H-11 (δH 5.27 and 5.41, respectively), were also evident in the ^1H NMR spectrum of compound 2 (Table 1). The most significant difference observed was the replacement of the 1,2-disubstituted double bond in the side chain of 1 by a 1,1-disustituted double bond (δH 4.63 and 4.70) in the side chain of 2. The correlations observed in the COSY spectrum of 2 identified the relevant spin systems; however, metabolite 2 was proven unstable and degraded prior to the acquisition of heteronuclear NMR spectra. Nevertheless, the high structural similarity of 2 with compound 1 renders safe the proposed identification of 2 as (9E)-3β-hydroxy-4α,24-dimethyl-8,9-seco-5α-cholesta-9(11),24(28)-dien-8-one.

in vitro = settings: human
Experimental: (§1) Initially, the cytotoxic activity of metabolites 3–7, 9–12, 14–20, and 22–26 was evaluated in human cancer and normal cells after 72 h of treatment. Human cervical cancer (HeLa), human breast adenocarcinoma (MCF7) cell lines, and human normal fibroblasts (BJ) were used for the screening.
(§2) In cytotoxicity assays, cancer cells were treated with six different concentrations of each tested compound for 72 h. Cells were stained with resazurin and IC50 values were calculated as previously reported [26]. Triplicates from at least three independent experiments were used.

[2] = tested on: HeLa (human cervical cancer cell line); experiment: Cytotoxicity, resazurin assay, 72 h; settings: read-out: Cytotoxicity (IC50) HeLa
Experimental: as §1
(§3) The tested compounds were dissolved in DMSO to afford 10 mM stock solutions. Human cervical carcinoma (HeLa) and human breast adenocarcinoma (MCF7) cell lines were purchased from European Collection of Authenticated Cell Cultures (ECACC, Salisbury, UK) and cultivated in Dulbecco’s Modified Eagle Medium (DMEM) (Merck, Darmstadt, Germany), as previously reported [27]. […] All cells were maintained in a humidified CO2 incubator at 37 °C using the standard trypsinization procedure twice or three times a week. […] All cells were maintained in a humidified CO2 incubator at 37 °C using the standard trypsinization procedure twice or three times a week.
as §2

[3] = tested on: MCF7 (human breast adenocarcinoma cell line); experiment: Cytotoxicity, resazurin assay, 72 h; settings: MCF7, 72 h, read-out: Cytotoxicity (IC50) MCF7
Experimental: as §1, §3, §2

androgen receptor (AR) = experiment: AR-transcriptional reporter assay (luciferase) in 22Rv1-ARE14 cells; settings: 24 h; for Luciferase activity (AR-mediated transcription), in words: six concentrations, already at submicromolar concentrations
Experimental: Therefore, we further analyzed the influence of the isolated steroids on AR-mediated transcription. […] Control cells were grown in charcoal-stripped serum medium (CSS). Cells were stimulated with either 1 nM methyltrienolone R1881 (R) or with the tested compounds in six different concentrations for 24 h in CSS. The luciferase activity was measured in the cell lysate. […] The experiment was repeated three times in triplicates.
AR-transcriptional reporter assays were performed on 22Rv1-ARE14 cells after 24 h of incubation, as previously described [22].

[4] = tested on: human umbilical vein endothelial cells (HUVEC); experiment: Migration scratch assay; assay type: cell-based; settings: 20 µM, 20 h of treatment
Experimental: Subsequently, we examined whether the isolated steroids could influence angiogenesis or inflammation in vitro. […] Only non-cytotoxic concentrations in HUVECs were used for the scratch assay.
The scratch test was performed with HUVEC cells and evaluated after 20 h of treatment, as previously reported.

[5] = tested on: BJ (human normal fibroblasts)
Experimental: as §1, §2

[6] = tested on: neuron-like SH-SY5Y cells; experiment: Cell death in 3-NPA model, propidium iodide (PI) assay; assay type: cell-based, human; settings: maximal effect at 10 µM, with 20 mM 3-NPA, 48 h
Experimental: In order to evaluate the potential neuroprotective effect of the compounds, neuroblastoma cell line SH-SY5Y was differentiated for 48 h and further exposed to 20 mM 3-nitropropionic acid (3-NPA) as an agent mimicking Huntington’s disease in vitro [25]. 3-NPA was used alone or in co-treatment with the tested compounds at concentrations of 0.1–10 µM. […] In general, PI as a positively charged dye is associated with an increase of cell damage or death, since it penetrates cells with cell-disrupted membranes. Within the 3-NPA model, its toxic effect was considered as 100% of the PI signal and thus reduction of cell death was determined.
N-acetylcysteine (NAC) was used as a positive control. * p compared with vehicle with 20 mM 3-NPA, # p compared with vehicle without 20 mM 3-NPA.
Cell death of SH-SY5Y cells (20,000 cells/well) was determined using the propidium iodide (PI) assay according to Stone et al. with a slight modification. […] The resulting fluorescence of 3-NPA toxin was considered as 100% cell death. In the assays, neuron-like cells were treated with the tested compounds in 0.1–10 µM concentration range for 48 h. DMSO-treated cells (≤0.1% v/v) were used as healthy controls.

[7] = Cytotoxicity, resazurin assay, 72 h; settings: human, BJ cells (human normal fibroblasts)
Experimental: as §1, §2

Row | Compound | IC50 at 72 h (in vitro) | IC50 [2] | IC50 [3] | further results
1 | C=C(CC[C@@H](C)[C@H]1CC[C@H]2C(=O)CC[C@H]3[C@H](C)[C@@H](O)CC[C@]3(C)/C=C/C[C@]12C)C(C)C [Compound 2, (9E)-3β-hydroxy-4α,24-dimethyl-8,9-seco-5α-cholesta-9(11),24(28)-dien-8-one] |  |  |  | Stability [1]: unstable
2 | C=C(CCC(C)C1CCC2C3CCC4C(C)C(O)CCC4(C)C3CCC12C)C(C)C (stereo not drawn) [Compound 3, 4α,24-dimethyl-5α-cholest-24(28)-en-3β-οl] | > 50 µM | > 50 µM | > 50 µM | 
3 | CC(C)[C@@H](C)/C=C/[C@@H](C)[C@H]1CC[C@H]2[C@@H]3CC[C@H]4[C@H](C)[C@@H](O)CC[C@]4(C)[C@H]3CC[C@]12C [Compound 4, (22E,24R)-4α,24-dimethyl-5α-cholest-22-en-3β-ol] | > 50 µM | > 50 µM | > 50 µM | 
4 | C=C(CCC(C)C1CCC2C1(C)CCC1C3(C)CCC(O)C(C)C3CCC21O)C(C)C (stereo not drawn) [Compound 5, 4α,24-dimethyl-5α-cholest-24(28)-en-3β,8β-diol] | > 50 µM | > 50 µM | > 50 µM | 
5 | CC(C)[C@@H](C)/C=C/[C@@H](C)[C@H]1CC[C@@H]2[C@]1(C)CC[C@@H]1[C@@]3(C)CC[C@H](O)[C@@H](C)[C@@H]3CC[C@@]21O [Compound 6, (22E,24R)-4α,24-dimethyl-5α-cholest-22-en-3β,8β-diol] | > 50 µM | > 50 µM | > 50 µM | 
6 | C=C(C(=O)CC(C)C1CCC2C1(C)CCC1C3(C)CCC(O)C(C)C3CCC21O)C(C)C (stereo not drawn) [Compound 7, 23-oxo-4α,24-dimethyl-5α-cholest-24(28)-en-3β,8β-diol] | > 50 µM | > 50 µM | > 50 µM | 
7 | C=C(CCC(C)C1CCC2C1(C)CC(O)C1C3(C)CCC(O)C(C)C3CCC21O)C(C)C (stereo not drawn) [Compound 9, 4α,24-dimethyl-5α-cholest-24(28)-en-3β,8β,11β-triol] | 18.3 ± 4 µM | 25.9 ± 4.9 µM | 36.4 ± 5.7 µM | 
8 | CC(C)[C@@H](C)/C=C/[C@@H](C)[C@H]1CC[C@@H]2[C@]1(C)C[C@H](O)[C@@H]1[C@@]3(C)CC[C@H](O)[C@@H](C)[C@@H]3CC[C@@]21O [Compound 10, (22E,24R)-4α,24-dimethyl-5α-cholest-22-en-3β,8β,11β-triol] | 4.1 ± 1.9 µM | 32.9 ± 6.8 µM | 32.7 ± 1.3 µM | Concentration dependence of AR inhibition (androgen receptor (AR)): increased inhibition of AR
9 | C=C(C(=O)CC(C)C1CCC2C1(C)CC(O)C1C3(C)CCC(O)C(C)C3CCC21O)C(C)C (stereo not drawn) [Compound 11, 23-oxo-4α,24-dimethyl-5α-cholest-24(28)-en-3β,8β,11β-triol] | > 50 µM | 18.8 ± 6.4 µM | 21.7 ± 1.4 µM | Inhibition of HUVEC migration [4]: partially inhibited; Cytotoxicity toward normal cells (BJ), in words [5]: absence of cytotoxicity; Rank of AR inhibition (androgen receptor (AR); 10 µM): strongest inhibition of AR; Luciferase activity (AR-mediated transcription), in words (androgen receptor (AR)): clearly reduced luciferase activity in a dose-dependent manner; Effect on cell death (PI assay), in words [6]: significantly reduced cell death
10 | C=C(C(C)C)C(CC(C)C1CCC2C1(C)CC(O)C1C3(C)CCC(O)C(C)C3CCC21O)OC(C)=O (stereo not drawn) [Compound 12, 23ξ-acetoxy-4α,24-dimethyl-5α-cholest-24(28)-en-3β,8β,11β-triol] | > 50 µM | 15.7 ± 2 µM | 25.3 ± 6.5 µM | Inhibition of HUVEC migration [4]: partially inhibited; Cytotoxicity toward normal cells (BJ), in words [5]: absence of cytotoxicity; Luciferase activity (AR-mediated transcription), in words (androgen receptor (AR)): clearly reduced luciferase activity in a dose-dependent manner
11 | CC(C)C(C)/C=C\[C@@H](C)[C@H]1CC[C@H]2[C@]3(O)CC[C@H]4[C@H](C)[C@@H](O)CC[C@]4(C)[C@H]3[C@@H](O)[C@H](O)[C@]12C (stereo partly drawn) [Compound 14, (22Z)-4α,24ξ-dimethyl-5α-cholest-22-en-3β,8β,11β,12α-tetraol] | > 50 µM | > 50 µM | 29.1 ± 5 µM | Cytotoxicity toward normal cells (BJ), in words [5]: absence of cytotoxicity
12 | C=C(CCC(C)C1CCC2C3(O)CCC4C(C)C(O)CCC4(C)C3CCC12CO)C(C)C (stereo not drawn) [Compound 15, 4α,24-dimethyl-5α-cholest-24(28)-en-3β,8β,18-triol] | > 50 µM | 19 ± 4.3 µM | 18.9 ± 0.1 µM | Cytotoxicity toward normal cells (BJ), in words [5]: absence of cytotoxicity
13 | CC(C)[C@@H](C)/C=C/[C@@H](C)[C@H]1CC[C@H]2[C@]3(O)CC[C@H]4[C@H](C)[C@@H](O)CC[C@]4(C)[C@H]3CC[C@]12CO [Compound 16, (22E,24R)-4α,24-dimethyl-5α-cholest-22-en-3β,8β,18-triol] | 23.2 ± 1.4 µM | 32.9 ± 5.2 µM | 33.8 ± 1 µM | Concentration dependence of AR inhibition (androgen receptor (AR)): increased inhibition of AR; Luciferase activity (AR-mediated transcription), in words (androgen receptor (AR)): clearly reduced luciferase activity in a dose-dependent manner
14 | C=C(CCC(C)C1CCC2C3CC=C4CC(O)CCC4(C)C3CCC12C)C(C)C (stereo not drawn) [Compound 17, 24-methyl-cholesta-5,24(28)-dien-3β-οl] |  | > 50 µM | > 50 µM | IC50 at 72 h [7]: > 50 µM
15 | C=C(CCC(C)C1CCC2C3C(O)C=C4CC(O)CCC4(C)C3CCC12C)C(C)C (stereo not drawn) [Compound 18, 24-methyl-cholesta-5,24(28)-dien-3β,7β-diol] | > 50 µM | 22.6 ± 0.4 µM | 28.6 ± 5.3 µM | Cytotoxicity toward normal cells (BJ), in words [5]: absence of cytotoxicity
16 | C=C(CCC(C)C1CCC2C3CC=C4CC(O)CCC4(CO)C3CCC12C)C(C)C (stereo not drawn) [Compound 19, 24-methyl-cholesta-5,24(28)-dien-3β,19-diol] | > 50 µM | > 50 µM | > 50 µM | 
17 | C=C(C=CC(C)C1CCC2C3CC=C4CC(O)CCC4(CO)C3CCC12C)C(C)C (stereo not drawn) [Compound 20, (22E)-24-methyl-cholesta-5,22,24(28)-trien-3β,19-diol] | > 50 µM | > 50 µM | > 50 µM | Concentration dependence of AR inhibition (androgen receptor (AR)): increased inhibition of AR; Luciferase activity (AR-mediated transcription), in words (androgen receptor (AR)): clearly reduced luciferase activity in a dose-dependent manner
18 | C=C(CCC(C)C1CCC2C3C(OC(C)=O)C=C4CC(O)CCC4(CO)C3CCC12C)C(C)C (stereo not drawn) [Compound 22, 7β-acetoxy-24-methyl-cholesta-5,24(28)-dien-3β,19-diol] |  | 7.5 ± 0.1 µM | 8.9 µM | Inhibition of HUVEC migration [4]: partially inhibited; IC50 at 72 h [7]: 14.8 ± 5.8 µM
19 | CC(=O)O[C@H]1C=C2C[C@@H](O)CC[C@]2(CO)[C@H]2CC[C@]3(C)[C@@H]([C@H](C)CCCC(C)C)CC[C@H]3[C@H]12 [Compound 23, 7β-acetoxy-cholest-5-en-3β,19-diol] | 14.5 ± 3.9 µM | 12 ± 1.7 µM | 11.2 ± 0.5 µM | Inhibition of HUVEC migration [4]: partially inhibited; Effect on cell death (PI assay), in words [6]: significantly reduced cell death
20 | C=C(CCC(C)C1CCC2C3C(=O)C=C4CC(O)CCC4(CO)C3CCC12C)C(C)C (stereo not drawn) [Compound 24, 7-oxo-24-methyl-cholesta-5,24(28)-dien-3β,19-diol] | 45.9 ± 2.8 µM | 21.4 ± 2 µM | 31.7 ± 0.3 µM | 
21 | C=C(CCC(C)C1CCC2C3=CC(O)C4(O)CC(O)CCC4(C)C3CCC21C)C(C)C (stereo not drawn) [Compound 25, 24-methyl-cholesta-7,24(28)-dien-3β,5α,6β-triol] | > 50 µM | > 50 µM | > 50 µM | 
22 | CC(C)[C@@H](C)/C=C/[C@@H](C)[C@H]1CC[C@H]2C3=C[C@@H](O)[C@@]4(O)C[C@@H](O)CC[C@]4(C)[C@H]3CC[C@]12C [Compound 26, (22E,24R)-24-methyl-cholesta-7,22-dien-3β,5α,6β-triol] | > 50 µM | > 50 µM | > 50 µM | 
23 | C[C@]12CC[C@H](O)CC1=CC[C@@H]1[C@@H]2CC[C@]2(C)C(n3cnc4ccccc43)=CC[C@@H]12 [Galeterone, reference compound] |  |  |  | Inhibition of AR-regulated transcription (androgen receptor (AR); 10 µM, 22Rv1-ARE14): 22%
